Source: PubChem BioAssay AID1963844 (Molecular Pharmacology Branch, DTP, NCI, 2024)

System: 422866-222-R5-J1-PDC complex spheroid viability
Experiment: Anticancer human tumor 422866-222-R5-J1-PDC patient-derived pancreatic adenocarcinoma cell line growth inhibition [POLQ]
Conditions: for IC50: curve of first compound; for viability, T/C: stronger effect = lower value
Protocol: Multicellular complex tumor spheroid response to Polymerase (POL) inhibitors (novobiocin, ART-558, RP6685) in combination with a variety of drugs and investigational agents in selected tumor cell lines
The POL inhibitors (novobiocin, ART-558, and RP6685) were evaluated both individually and in combination with standard of care and investigational anticancer small molecules within a complex spheroid model of solid tumors. . Complex spheroids include a stromal component modeled by human endothelial cells (HUVEC) and fibroblasts modeled by human mesenchymal stem cells (MSCs). The concentration ranges selected for each drug and investigational agent were based upon clinically achievable concentrations if the clinical Cmax of the agent was known.
Compounds. The drugs and investigational agents: novobiocin (NSC847541), ART-558 (NSC835418), RP-6685 (NSC848927), peposertib (NSC802822), ceralasertib (NSC780249), elimusertib (NSC800525), camonsertib (NSC841442), AZD-1390 (NSC803789), olaparib (NSC753686), talazoparib (NSC767125), rucaparib (NSC756644), sotorasib (NSC818433), MRTX-1133 (NSC836407), SN-38 (NSC673596), topotecan (NSC609699), epotoside (NSC141540), doxorubicin (NSC123127), gemcitabine (NSC613327), 5-fluorouracil (NSC19893), paclitaxel (NSC125973), vemurafenib (NSC761431), MSA-2 (NSC828583), SN-011 (NSC837082), adavosertib (NSC754352), prexasertib (NSC758257), carboplatin (NSC241240) and oxaliplatin (NSC266046), were obtained from the National Cancer Institute (NCI) Developmental Therapeutics Program Chemical Repository (21). The FDA-approved anticancer drug set is available from the Developmental Therapeutics Program at https://dtp.cancer.gov/organization/dscb/obtaining/. […] The stock solutions were prepared in dimethyl sulfoxide (DMSO, Sigma-Aldrich, St. Louis, MO, cat. D2650), except for the platinum compounds which were prepared in saline (Quality Biological, Gaithersburg, MD, cat. 114-055-101), at 800-fold the tested concentration and stored at -70 degrees C prior to their use. All drugs and investigational agents were tested over a range starting from a high concentration at or near the clinical Cmax and decreasing in half-log increments. If the clinical Cmax for an agent had not been determined, the highest concentration tested was 10 microM, except for SN-38, which was tested at a high concentration of 1 microM.
Cell Culture. All cells were maintained in an incubator at 37 degrees C and 5% CO2 with 95% humidity. The PDC lines were cultured according to standard operating procedures established by the NCI PDMR (https://pdmr.cancer.gov). Table 3 of the manuscript, lists the cell lines along with the number of the three cell types plated to form the mct-spheroids and media for tumor cell growth. After thawing, all PDC lines, except 997537-175-T-J1-PDC and 415267-285-R-J2-PDC, were cultured in Matrigel-coated flasks prepared with a working solution of 1X Ham's F-12 nutrient mix, without supplementation (Thermo Fisher Scientific, cat. 11765054), 100 U/mL penicillin-streptomycin (Thermo Fisher Scientific, cat. 15140122), and 2.5% Matrigel (Corning Inc., Corning, NY, cat. 354248) for the first three passages. The two PDC lines 997537-175-T-J1-PDC and 415267-285-R-J2-PDC were cultured on uncoated flasks. The 857933-349-R-J2-PDC line was cultured in 6C/Colon 1B media containing advanced DMEM/F-12 (Thermo Fisher Scientific, cat. 12634028), 10 mM HEPES (Thermo Fisher Scientific, cat. 15630080), 1X GlutaMAX supplement (Thermo Fisher Scientific, cat. 35050061), 0.1 mg/mL primocin (InvivoGen, San Diego, CA, cat. ant-pm-2), 10% defined fetal bovine serum, heat inactivated (HyClone Laboratories Inc., Logan, UT, cat. SH30070.03HI), 50% L-WRN conditioned media (ATCC, cat. CRL-3276), 1.25 mM N-Acetyl-L-cysteine (Sigma-Aldrich, cat. A9165), 10 mM nicotinamide (Sigma-Aldrich, cat. N0636), 1X B-27 supplement (Thermo Fisher Scientific, cat. 17504044), 1X N-2 supplement (Thermo Fisher Scientific, cat. […]

[1] = second compound 0.0316 µM, first compound 0.0316 µM
[2] = second compound 0.0316 µM, first compound 0.1 µM
[3] = second compound 0.0316 µM, first compound 0.316 µM
[4] = second compound 0.0316 µM, first compound 1 µM
[5] = second compound 0.1 µM, first compound 0.0316 µM
[6] = second compound 0.1 µM, first compound 0.1 µM
[7] = second compound 0.1 µM, first compound 0.316 µM
[8] = second compound 0.1 µM, first compound 1 µM
[9] = second compound 0.316 µM, first compound 0.0316 µM
[10] = second compound 0.316 µM, first compound 0.1 µM
[11] = second compound 0.316 µM, first compound 0.316 µM
[12] = second compound 0.316 µM, first compound 1 µM
[13] = second compound 1 µM, first compound 0.0316 µM
[14] = second compound 1 µM, first compound 0.1 µM
[15] = second compound 1 µM, first compound 0.316 µM
[16] = second compound 1 µM, first compound 1 µM
[17] = second compound 3.16 µM, first compound 0.0316 µM
[18] = second compound 3.16 µM, first compound 0.1 µM
[19] = second compound 3.16 µM, first compound 0.316 µM
[20] = second compound 3.16 µM, first compound 1 µM
[21] = second compound 10 µM, first compound 0.0316 µM
[22] = second compound 10 µM, first compound 0.1 µM
[23] = second compound 10 µM, first compound 0.316 µM
[24] = second compound 10 µM, first compound 1 µM
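Note: spheroids exposed to compounds for one week before readout.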
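Throughout, for viability, T/C: percent of DMSO vehicle wells luminescence so 100% = untreated viability.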

## CC(C)n1c(=O)n(C)c2cnc3cc(F)c(-c4ccc(OCCCN5CCCCC5)nc4)cc3c21 + Cc1cccc(N(C)C(=O)C2C(O)CCN2c2nc(C)cc(C(F)(F)F)c2C#N)c1
Second compound 0.0316 µM
  IC50: > 10 µM
Second compound 0.1 µM
  IC50: > 10 µM
Second compound 0.316 µM
  IC50: > 10 µM
Second compound 1 µM
  IC50: > 10 µM
Second compound 3.16 µM
  IC50: > 10 µM
Second compound 10 µM
  IC50: > 10 µM
[1]
  viability, T/C: 105%
[2]
  viability, T/C: 101%
[3]
  viability, T/C: 105%
[4]
  viability, T/C: 124%
Second compound 0.0316 µM, first compound 3.16 µM
  viability, T/C: 106%
Second compound 0.0316 µM, first compound 10 µM
  viability, T/C: 64.9%
[5]
  viability, T/C: 91.6%
[6]
  viability, T/C: 108%
[7]
  viability, T/C: 106%
[8]
  viability, T/C: 115%
Second compound 0.1 µM, first compound 3.16 µM
  viability, T/C: 96.3%
Second compound 0.1 µM, first compound 10 µM
  viability, T/C: 60.4%
[9]
  viability, T/C: 117%
[10]
  viability, T/C: 101%
[11]
  viability, T/C: 104%
[12]
  viability, T/C: 114%
Second compound 0.316 µM, first compound 3.16 µM
  viability, T/C: 79.5%
Second compound 0.316 µM, first compound 10 µM
  viability, T/C: 67%
[13]
  viability, T/C: 100%
[14]
  viability, T/C: 112%
[15]
  viability, T/C: 96.2%
[16]
  viability, T/C: 111%
Second compound 1 µM, first compound 3.16 µM
  viability, T/C: 98%
Second compound 1 µM, first compound 10 µM
  viability, T/C: 59.5%
[17]
  viability, T/C: 115%
[18]
  viability, T/C: 115%
[19]
  viability, T/C: 96.9%
[20]
  viability, T/C: 118%
Second compound 3.16 µM, first compound 3.16 µM
  viability, T/C: 79.9%
Second compound 3.16 µM, first compound 10 µM
  viability, T/C: 66.9%
[21]
  viability, T/C: 115%
[22]
  viability, T/C: 90.5%
[23]
  viability, T/C: 94.5%
[24]
  viability, T/C: 90.7%
Second compound 10 µM, first compound 3.16 µM
  viability, T/C: 80.5%
Second compound 10 µM, first compound 10 µM
  viability, T/C: 60.3%

## CCc1c2c(nc3ccc(O)cc13)-c1cc3c(c(=O)n1C2)COC(=O)[C@]3(O)CC + Cc1cccc(N(C)C(=O)C2C(O)CCN2c2nc(C)cc(C(F)(F)F)c2C#N)c1
Second compound 0.0316 µM
  IC50: < 0.00316 µM
Second compound 0.1 µM
  IC50: < 0.00316 µM
Second compound 0.316 µM
  IC50: < 0.00316 µM
Second compound 1 µM
  IC50: < 0.00316 µM
Second compound 3.16 µM
  IC50: < 0.00316 µM
Second compound 10 µM
  IC50: < 0.00316 µM
Second compound 0.0316 µM, first compound 0.00316 µM
  viability, T/C: 44.4%
Second compound 0.0316 µM, first compound 0.01 µM
  viability, T/C: 37.4%
[1]
  viability, T/C: 38.7%
[2]
  viability, T/C: 37.7%
[3]
  viability, T/C: 34.4%
[4]
  viability, T/C: 21.4%
Second compound 0.1 µM, first compound 0.00316 µM
  viability, T/C: 49.1%
Second compound 0.1 µM, first compound 0.01 µM
  viability, T/C: 34.3%
[5]
  viability, T/C: 38.9%
[6]
  viability, T/C: 34.8%
[7]
  viability, T/C: 34.2%
[8]
  viability, T/C: 28.2%
Second compound 0.316 µM, first compound 0.00316 µM
  viability, T/C: 46.2%
Second compound 0.316 µM, first compound 0.01 µM
  viability, T/C: 40.4%
[9]
  viability, T/C: 37.3%
[10]
  viability, T/C: 38.1%
[11]
  viability, T/C: 34.6%
[12]
  viability, T/C: 25%
Second compound 1 µM, first compound 0.00316 µM
  viability, T/C: 40.9%
Second compound 1 µM, first compound 0.01 µM
  viability, T/C: 45.4%
[13]
  viability, T/C: 34.4%
[14]
  viability, T/C: 35.2%
[15]
  viability, T/C: 40.6%
[16]
  viability, T/C: 18.2%
Second compound 3.16 µM, first compound 0.00316 µM
  viability, T/C: 49.7%
Second compound 3.16 µM, first compound 0.01 µM
  viability, T/C: 38.3%
[17]
  viability, T/C: 35.1%
[18]
  viability, T/C: 34.6%
[19]
  viability, T/C: 39.3%
[20]
  viability, T/C: 26.4%
Second compound 10 µM, first compound 0.00316 µM
  viability, T/C: 42.1%
Second compound 10 µM, first compound 0.01 µM
  viability, T/C: 40.1%
[21]
  viability, T/C: 42.2%
[22]
  viability, T/C: 38%
[23]
  viability, T/C: 44.2%
[24]
  viability, T/C: 24.6%
